What all share (assay type): cell-based, human
Assay [1] concerns HLA-A*24:02-expressing target cells (TISI cells).
The test system is the same in assay [2]. The source holds these as a separate data set.
The subject of assay [3] is HLA-A*02:01-expressing target cells (T2 cells).
Assay [4] has the same test system. This is another data set of the same source.
The subject of assay [5] is TISI cells.
The subject of assay [6] is CD8-positive T cells in PBMCs of individuals not infected with SARS-CoV-2 (HLA-A*24:02-positive).
The test system of assay [7] is CD8-positive T cells in PBMCs of individuals who had recovered from COVID-19 (HLA-A*24:02-positive).
The mark [8] stands for this setting: HLA-A*24:02-restricted, peptide-pulsed TISI cells vs TISI cells not pulsed.
Setting [9] is: HLA-A*24:02-restricted CTL lines, peptide-pulsed TISI cells.
The mark [10] stands for this setting: HLA-A*02:01-restricted, peptide-pulsed T2 cells vs T2 cells not pulsed.
The mark [11] stands for this setting: HLA-A*02:01-restricted CTL lines, peptide-pulsed T2 cells.
The mark [12] stands for this setting: CTL clones from limiting dilution, TISI target cells.

“Also recorded” adds a separate entry of the source. Where two headings read alike, the source gives them in different places.

For the sequence AYANSVFNI [Peptide 1], the “Peptide-specific IFN-γ production (ELISPOT)” value in assay [1] (setting [8]) and in assay [3] (setting [10]) was “peptide-specific IFN-γ production was observed” throughout. Moreover, the “IFN-γ production by CTL lines (ELISA)” value in assay [2] (setting [9]) and in assay [4] (setting [11]) was “produced IFN-γ in a peptide-specific manner” in each case. The “Peptide-specific IFN-γ production by CTL clones (ELISA)” value in assay [5] (setting [12]) is “showed IFN-γ production specific to”. Moreover, the “Detection of tetramer-positive CD8-positive T cells recognizing the peptide” value (from here on “Detection”) in assay [6] is given as “detected”.
On to “FTYASALWEI (an amino acid sequence derived from ORF1ab polyprotein of SARS-CoV-2) [Peptide 10, SARS-CoV-2 ORF1ab-derived 10mer peptide, position 4089]”, for which the “Peptide-specific IFN-γ production (ELISPOT)” value in assay [1] (setting [8]) is “peptide-specific IFN-γ production was observed”. Further, the “IFN-γ production by CTL lines (ELISA)” value in assay [2] (setting [9]) is listed as “produced IFN-γ in a peptide-specific manner”. The “Peptide-specific IFN-γ production by CTL clones (ELISA)” value in assay [5] (setting [12]) was “showed IFN-γ production specific to”. Also, in assay [7], the “Detection” value is “detected”.
Turning to LWLLWPVTL [Peptide 13], the “Peptide-specific IFN-γ production (ELISPOT)” value in assay [1] and in assay [3] was “peptide-specific IFN-γ production was observed” each time. Moreover, the “IFN-γ production by CTL lines (ELISA)” value in assay [2] and in assay [4] was “produced IFN-γ in a peptide-specific manner” throughout. Moreover, the “Detection” value in assay [7] and in assay [6] was “detected” in each case.
As to “PFAMQMAYRF (an amino acid sequence derived from surface glycoprotein of SARS-CoV-2) [Peptide 5, SARS-CoV-2 S protein-derived 10mer peptide, position 897]”, the entries for the “Peptide-specific IFN-γ production (ELISPOT)” value in assay [1] (setting [8]) and in assay [3] (setting [10]) were “peptide-specific IFN-γ production was observed” and “no peptide-specific IFN-γ production was observed”, respectively. Moreover, the “IFN-γ production by CTL lines (ELISA)” value in assay [2] (setting [9]) is recorded as “produced IFN-γ in a peptide-specific manner”. In addition, the “Detection” value in assay [7] is “detected”.
For the sequence RYFKYWDQTY [Peptide 12], the “Peptide-specific IFN-γ production (ELISPOT)” value in assay [1] (setting [8]) and in assay [3] (setting [10]) was “peptide-specific IFN-γ production was observed” each time.
Take RYKLEGYAF [Peptide 9]: the “Peptide-specific IFN-γ production (ELISPOT)” value in assay [1] is “peptide-specific IFN-γ production was observed”; in assay [3], “no peptide-specific IFN-γ production was observed”. The “IFN-γ production by CTL lines (ELISA)” value in assay [2] is reported as “produced IFN-γ in a peptide-specific manner”. Also, the “Peptide-specific IFN-γ production by CTL clones (ELISA)” value in assay [5] is on record as “showed IFN-γ production specific to”. In assay [7], the “Detection” value is “detected”.
Consider SYSLFDMSKF [Peptide 11], for which the “Peptide-specific IFN-γ production (ELISPOT)” value in assay [1] (setting [8]) was “peptide-specific IFN-γ production was observed”; in assay [3] (setting [10]), “no peptide-specific IFN-γ production was observed”.
For “TAYANSVFNI (an amino acid sequence derived from ORF1ab polyprotein of SARS-CoV-2) [Peptide 2, SARS-CoV-2 ORF1ab-derived 10mer peptide, position 5079]”, the “Peptide-specific IFN-γ production (ELISPOT)” value in assay [1] (setting [8]) and in assay [3] (setting [10]) was “peptide-specific IFN-γ production was observed” throughout. The “IFN-γ production by CTL lines (ELISA)” value in assay [2] (setting [9]) and in assay [4] (setting [11]) was “produced IFN-γ in a peptide-specific manner” in each case. In addition, in assay [5] (setting [12]), the “Peptide-specific IFN-γ production by CTL clones (ELISA)” value is given as “showed IFN-γ production specific to”.
As to TYASALWEI [Peptide 4], the “Peptide-specific IFN-γ production (ELISPOT)” value in assay [1] and in assay [3] was “peptide-specific IFN-γ production was observed” in each case. Besides, the “IFN-γ production by CTL lines (ELISA)” value in assay [2] is listed as “produced IFN-γ in a peptide-specific manner”. Further, in assay [7], the “Detection” value was “detected”.
In the case of “VFMSEAKCW (an amino acid sequence derived from ORF1ab polyprotein of SARS-CoV-2) [Peptide 3, SARS-CoV-2 ORF1ab-derived 9mer peptide, position 5184]”, the “Peptide-specific IFN-γ production (ELISPOT)” value in assay [1] (setting [8]) is recorded as “peptide-specific IFN-γ production was observed”; in assay [3] (setting [10]) it was “no peptide-specific IFN-γ production was observed”.
With “YAYLRKHFSM (an amino acid sequence derived from ORF1ab polyprotein of SARS-CoV-2) [Peptide 15, SARS-CoV-2 ORF1ab-derived 10mer peptide, position 5138]”, the “Peptide-specific IFN-γ production (ELISPOT)” value in assay [1] (setting [8]) is listed as “peptide-specific IFN-γ production was observed”; in assay [3] (setting [10]), “no peptide-specific IFN-γ production was observed”.
On to “YDYLVSTQEF (an amino acid sequence derived from ORF1ab polyprotein of SARS-CoV-2) [Peptide 6, SARS-CoV-2 ORF1ab-derived 10mer peptide, position 3811]”, for which the “Peptide-specific IFN-γ production (ELISPOT)” value in assay [1] (setting [8]) is recorded as “peptide-specific IFN-γ production was not found; also recorded: no peptide-specific IFN-γ production was observed”.
In the case of “YYSQLMCQPI (an amino acid sequence derived from ORF1ab polyprotein of SARS-CoV-2) [Peptide 7, SARS-CoV-2 ORF1ab-derived 10mer peptide, position 2560]”, the “Peptide-specific IFN-γ production (ELISPOT)” value in assay [1] (setting [8]) and in assay [3] (setting [10]) was “peptide-specific IFN-γ production was observed” in each case. In assay [2] (setting [9]), the “IFN-γ production by CTL lines (ELISA)” value is on record as “produced IFN-γ in a peptide-specific manner”. Further, in assay [5] (setting [12]), the “Peptide-specific IFN-γ production by CTL clones (ELISA)” value is on record as “showed IFN-γ production specific to”. Besides, the “Detection” value in assay [6] is “detected”.

For the origin of these results see patent publication US20230357328A1, “SARS-CoV-2 PROTEIN-DERIVED PEPTIDE AND VACCINE CONTAINING SAME” (ONCOTHERAPY SCIENCE, INC., priority 2020, published 2023).
